Measurements published in ChEMBL document CHEMBL6120946, “From Hit to Lead: Discovery of First-In-Class Furanone Glycoside D228 Derived from Chimonanthus salicifolius for the Treatment of Inflammatory Bowel Disease” (J Med Chem, 2024).
Active and inactive are the calls of the source. The rule behind the calls is not given here.

Assays:
Mus musculus [1] = species: Mus musculus; assay: Antiinflammatory activity in DSS-induced male C57BL/6 mouse model of inflammatory bowel disease assessed as reduction in TLR7 level; type: functional, organism-based
Mus musculus [2] = assay: Antiinflammatory activity in DSS-induced male C57BL/6 mouse model of inflammatory bowel disease assessed as decrease in p38 phosphorylation level at 50 to 200 microM/Kg by Western blot analysis; type: functional, organism-based; conditions: dose 50-200 µM/Kg
Mus musculus [3] = species: Mus musculus; assay: Antiinflammatory activity in DSS-induced male C57BL/6 mouse model of inflammatory bowel disease assessed as reduction in MYD88 level; type: functional, organism-based
Mus musculus [4] = assay: Antiinflammatory activity in DSS-induced male C57BL/6 mouse model of inflammatory bowel disease assessed as increase in colon length at 60 mg/kg/day, po via gavage measured upto 14 days relative to control; type: functional; conditions: time <= 14 day
Mus musculus [5] = assay: Antiinflammatory activity in DSS-induced male C57BL/6 mouse model of inflammatory bowel disease assessed as increase in colon length at 10 mg/kg/day, ip measured after 14 days relative to control; type: functional; conditions: time 14 day
Mus musculus [6] = assay: Antiinflammatory activity in DSS-induced male C57BL/6 mouse model assessed as effect on JNK phosphorylation level at 50 to 200 microM/Kg by Western blot analysis; type: functional, organism-based; conditions: dose 50-200 µM/Kg
Mus musculus [7] = assay: Antiinflammatory activity in DSS-induced male C57BL/6 mouse model assessed as increase in IL-10 level in colon at 50 to 100 microM/Kg; type: functional, organism-based; conditions: dose 50-100 µM/Kg
[8] = Toxicity in female Kunming mouse assessed as effect on liver to body weight ratio at 100 to 500 mg/kg/day, po measured after 5 weeks; type: organism-based; conditions: in vivo, 840 h, dose 100-500 mg/kg/day
[9] = Drug metabolism in mouse liver microsomes assessed as phoenicein formation measured after 5 mins in presence of NADPH by LC/MS/MS analysis; type: ADME, Microsome
[10] = Toxicity in male Kunming mouse assessed as effect on lung to body weight ratio at 100 to 500 mg/kg/day, po measured after 5 weeks; type: organism-based; conditions: in vivo, 840 h, dose 100-500 mg/kg/day
[11] = Acute toxicity in female Kunming mouse assessed as effect on spleen 5 g/Kg, po measured after 5 weeks; type: organism-based; conditions: in vivo, 5000 mg/kg, 840 h
[12] = Toxicity in male Kunming mouse assessed as effect on CREA level in serum at 100 to 500 mg/kg/day, po measured after 5 weeks; type: organism-based; conditions: in vivo, 840 h, dose 100-500 mg/kg/day
[13] = Toxicity in female Kunming mouse assessed as effect on heart to body weight ratio at 100 to 500 mg/kg/day, po measured after 5 weeks; type: organism-based; conditions: in vivo, 840 h, dose 100-500 mg/kg/day
Mus musculus [14] = assay: Antiinflammatory activity in DSS-induced male C57BL/6 mouse model of inflammatory bowel disease assessed as amelioration of crypts disruption at 50 to 100 microM/Kg by H and E staining based analysis; type: functional, organism-based; conditions: dose 50-100 µM/Kg
[15] = Genotoxicity in Salmonella typhimurium by Ames test; type: toxicity; conditions: salmonella enterica subsp. enterica serovar typhimurium
Mus musculus [16] = assay: Antiinflammatory activity in DSS-induced male C57BL/6 mouse model assessed as inhibition of IL-6 level in colon at 50 to 100 microM/Kg; type: functional, organism-based; conditions: dose 50-100 µM/Kg
[17] = Toxicity in female Kunming mouse assessed as effect on AST level in serum at 100 to 500 mg/kg/day, po measured after 5 weeks; type: organism-based; conditions: in vivo, 840 h, dose 100-500 mg/kg/day
[18] = Toxicity in female Kunming mouse assessed as effect on kidney to body weight ratio at 100 to 500 mg/kg/day, po measured after 5 weeks; type: organism-based; conditions: in vivo, 840 h, dose 100-500 mg/kg/day
[19] = Acute toxicity in female Kunming mouse assessed as effect on heart 5 g/Kg, po measured after 5 weeks; type: organism-based; conditions: in vivo, 5000 mg/kg, 840 h
[20] = Toxicity in female Kunming mouse assessed as effect on ALT level in serum at 100 to 500 mg/kg/day, po measured after 5 weeks; type: organism-based; conditions: in vivo, 840 h, dose 100-500 mg/kg/day
[21] = Toxicity in male Kunming mouse assessed as effect on kidney to body weight ratio at 100 to 500 mg/kg/day, po measured after 5 weeks; type: organism-based; conditions: in vivo, 840 h, dose 100-500 mg/kg/day
[22] = Toxicity in male Kunming mouse assessed as effect on ALT level in serum at 100 to 500 mg/kg/day, po measured after 5 weeks; type: organism-based; conditions: in vivo, 840 h, dose 100-500 mg/kg/day
[23] = Toxicity in female Kunming mouse assessed as change in food intake at 100 to 500 mg/kg/day, po measured after 5 weeks; type: organism-based; conditions: in vivo, 840 h, dose 100-500 mg/kg/day
Mus musculus [24] = assay: Antiinflammatory activity in DSS-induced male C57BL/6 mouse model of inflammatory bowel disease assessed as reduction in weight loss at 22.5 to 45 mg/kg/day, po via gavage measured upto 14 days; type: functional, organism-based; conditions: dose 22.5-45 mg/kg/day, time <= 14.0 day
[25] = Toxicity in male Kunming mouse assessed as lethal dose administered as po measured after 5 weeks; type: organism-based; conditions: in vivo
Mus musculus [26] = assay: Antiinflammatory activity in DSS-induced male C57BL/6 mouse model assessed as inhibition of IL-22 level in colon at 50 to 100 microM/Kg; type: functional, organism-based; conditions: dose 50-100 µM/Kg
[27] = Toxicity in male Kunming mouse assessed as effect on […] level in serum at 100 to 500 mg/kg/day, po measured after 5 weeks; type: organism-based; conditions: in vivo, 840 h, dose 100-500 mg/kg/day
[28] = Toxicity in male Kunming mouse assessed as effect on TG level in serum at 100 to 500 mg/kg/day, po measured after 5 weeks; type: organism-based; conditions: in vivo, 840 h, dose 100-500 mg/kg/day
Mus musculus [29] = assay: Antiinflammatory activity in DSS-induced male C57BL/6 mouse model of inflammatory bowel disease assessed as inhibition of MPO expression at 50 to 100 microM/Kg, po by immunohistochemical analysis; type: functional, organism-based; conditions: dose 50-100 µM/Kg
Mus musculus [30] = assay: Antiinflammatory activity in DSS-induced male C57BL/6 mouse model of inflammatory bowel disease assessed as increase in colon length at 22.5 mg/kg/day, po via gavage measured upto 14 days relative to control; type: functional; conditions: time <= 14 day
[31] = Acute toxicity in male Kunming mouse assessed as effect on lung 5 g/Kg, po measured after 5 weeks; type: organism-based; conditions: in vivo, 5000 mg/kg, 840 h
Mus musculus [32] = assay: Antiinflammatory activity in DSS-induced male C57BL/6 mouse model assessed as effect on JNK phosphorylation level at 50 to 100 microM/Kg by Western blot analysis; type: functional, organism-based; conditions: dose 50-100 µM/Kg
[33] = Toxicity in female Kunming mouse assessed as effect on kidney at 100 to 500 mg/kg/day, po measured after 5 weeks by H and E staining based analysis; type: organism-based; conditions: in vivo, 840 h, dose 100-500 mg/kg/day
[34] = Acute toxicity in female Kunming mouse assessed as effect on lung 5 g/Kg, po measured after 5 weeks; type: organism-based; conditions: in vivo, 5000 mg/kg, 840 h
[35] = Toxicity in male Kunming mouse assessed as effect on GGT level in serum at 100 to 500 mg/kg/day, po measured after 5 weeks; type: organism-based; conditions: in vivo, 840 h, dose 100-500 mg/kg/day
Mus musculus [36] = assay: Antiinflammatory activity in DSS-induced male C57BL/6 mouse model assessed as inhibition of TNF-alpha level in colon at 50 to 100 microM/Kg; type: functional, organism-based; conditions: dose 50-100 µM/Kg
[37] = Toxicity in female Kunming mouse assessed as effect on TP level in serum at 100 to 500 mg/kg/day, po measured after 5 weeks; type: organism-based; conditions: in vivo, 840 h, dose 100-500 mg/kg/day
[38] = Toxicity in male Kunming mouse assessed as effect on spleen at 100 to 500 mg/kg/day, po measured after 5 weeks by H and E staining based analysis; type: organism-based; conditions: in vivo, 840 h, dose 100-500 mg/kg/day
[39] = Toxicity in male Kunming mouse assessed as effect on TBIL level in serum at 100 to 500 mg/kg/day, po measured after 5 weeks; type: organism-based; conditions: in vivo, 840 h, dose 100-500 mg/kg/day

CC(C)=C1OC(C)=C(O[C@@H]2O[C@H](CO)[C@@H](O)[C@H](O)[C@H]2O)C1=O
Activity (Mus musculus [1]): Active | Activity (Mus musculus [2]): Active | Activity (Mus musculus [3]): Active | Activity (Mus musculus [4]): 73.4% | Activity (Mus musculus [5]): 20.4% | Activity (Mus musculus [6]): inactive

CC(=O)OC[C@H]1O[C@@H](OC2=C(C)OC(=C(C)C)C2=O)[C@H](OC(C)=O)[C@@H](OC(C)=O)[C@@H]1OC(C)=O
Activity (Mus musculus [7]): Active | Activity [8]: Non-toxic | Drug metabolism [9]: metabolite_detected | Activity [10]: Non-toxic | Activity [11]: Non-toxic | Activity [12]: Non-toxic | Activity [13]: Non-toxic | Activity (Mus musculus [14]): Active | Activity [15]: Non-toxic | Activity (Mus musculus [16]): Active | Activity [17]: Non-toxic | Activity [18]: Non-toxic | Activity [19]: Non-toxic | Activity [20]: Non-toxic | Activity [21]: Non-toxic | Activity [22]: Non-toxic | Activity [23]: Non-toxic | Activity (Mus musculus [24]): Active | LD50 at 840 h [25]: > 500 mg/kg | Activity (Mus musculus [26]): Active | Activity [27]: Non-toxic | Activity [28]: Non-toxic | Activity (Mus musculus [29]): Active | Activity (Mus musculus [30]): 45.3% | Activity [31]: Non-toxic | Activity (Mus musculus [32]): inactive | Activity [33]: Non-toxic | Activity [34]: Non-toxic | Activity [35]: Non-toxic | Activity (Mus musculus [36]): Active | Activity [37]: Non-toxic | Activity [38]: Non-toxic | Activity [39]: Non-toxic
